Results taken from ChEMBL document CHEMBL1201862, “PubChem BioAssay data set” (2004).
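Grown in 96-well plates, cells were treated for 48 hours with each compound at five concentrations. Insufficient inhibition: endpoint recorded as highest concentration tested. GI50: concentration for 50% inhibition of growth.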 Activity calls are given as the source filed them. Cut-off read from the data, not from the text of the source: active = GI50 up to about 1.1 µM and inactive = higher.

Experiments:
Experiment in all cases: growth of human tumour cells (NCI), 48 h
786-0 = test system: 786-0
A498 = test system: A498
BT-549 = test system: BT-549
CAKI-1 = test system: CAKI-1
CCRF-CEM = test system: CCRF-CEM
DU-145 = test system: DU-145
EKVX = test system: EKVX
HL-60 = test system: HL-60
K562 = test system: K562
KM12 = test system: KM12
MOLT-4 = test system: MOLT-4
Malme-3M = test system: Malme-3M
NCI-H460 = test system: NCI-H460
OVCAR-5 = test system: OVCAR-5
SF-295 = test system: SF-295
SK-MEL-2 = test system: SK-MEL-2
SK-MEL-5 = test system: SK-MEL-5
SK-OV-3 = test system: SK-OV-3
SNB-19 = test system: SNB-19
UO-31 = test system: UO-31

Measured: GI50

Cc1nnc2sc(-c3ccc([N+](=O)[O-])o3)nn12
inactive: 786-0 10.3 µM | A498 45.5 µM | BT-549 10.7 µM | CAKI-1 10 µM | CCRF-CEM 1.85 µM | DU-145 15 µM | EKVX 20.5 µM | HL-60 2.47 µM | K562 5.33 µM | KM12 15.8 µM | MOLT-4 3.15 µM | Malme-3M 4.08 µM | NCI-H460 17.9 µM | OVCAR-5 18.5 µM | SF-295 16.9 µM | SK-MEL-2 10.4 µM | SK-MEL-5 11.8 µM | SK-OV-3 18.7 µM | SNB-19 18.8 µM | UO-31 15.2 µM

Cc1cc2occ(S(=O)(=O)NC(=O)Nc3ccc(Cl)cc3)c(=O)c2c(=O)o1
inactive: 786-0 > 100 µM | A498 > 100 µM | BT-549 > 100 µM | CAKI-1 > 100 µM | CCRF-CEM > 100 µM | DU-145 > 100 µM | EKVX > 100 µM | HL-60 > 100 µM | K562 > 100 µM | KM12 > 100 µM | MOLT-4 > 100 µM | Malme-3M > 100 µM | NCI-H460 > 100 µM | OVCAR-5 > 100 µM | SF-295 > 100 µM | SK-MEL-2 > 100 µM | SK-MEL-5 > 100 µM | SK-OV-3 > 100 µM | SNB-19 > 100 µM | UO-31 > 100 µM

CCCC/N=C(/c1ccccc1)N1CCOCC1
inactive: 786-0 > 100 µM | A498 > 100 µM | BT-549 > 100 µM | CAKI-1 > 100 µM | CCRF-CEM > 100 µM | DU-145 > 100 µM | EKVX > 100 µM | HL-60 > 100 µM | K562 > 100 µM | KM12 > 100 µM | MOLT-4 > 100 µM | Malme-3M 57.9 µM | NCI-H460 > 100 µM | OVCAR-5 > 100 µM | SF-295 > 100 µM | SK-MEL-2 > 100 µM | SK-MEL-5 > 100 µM | SK-OV-3 > 100 µM | SNB-19 > 100 µM | UO-31 97.7 µM

CC(=O)NC1C(OCc2ccccc2)OC(CO)C(O)C1OC(C)C(=O)NC(C(=O)NC(CCC(=O)NCCCC(=O)Nc1ccc2c(c1)CN1C(=O)c3ccccc3C1=N2)C(N)=O)C(C)C (stereo not given)
inactive: 786-0 > 100 µM | A498 > 100 µM | BT-549 > 100 µM | CAKI-1 > 100 µM | CCRF-CEM > 100 µM | DU-145 > 100 µM | EKVX > 100 µM | HL-60 > 100 µM | K562 > 100 µM | KM12 > 100 µM | MOLT-4 > 100 µM | Malme-3M > 100 µM | NCI-H460 > 100 µM | OVCAR-5 > 100 µM | SF-295 > 100 µM | SK-MEL-2 > 100 µM | SK-MEL-5 > 100 µM | SK-OV-3 > 100 µM | SNB-19 > 100 µM | UO-31 > 100 µM

CN1C(=O)C(O)CC1c1cccc(C(F)(F)F)c1 (stereo not given)
inactive: 786-0 > 100 µM | A498 > 100 µM | BT-549 > 100 µM | CAKI-1 > 100 µM | CCRF-CEM > 100 µM | DU-145 > 100 µM | EKVX > 100 µM | HL-60 > 100 µM | K562 > 100 µM | KM12 > 100 µM | MOLT-4 > 100 µM | Malme-3M > 100 µM | NCI-H460 > 100 µM | OVCAR-5 > 100 µM | SF-295 > 100 µM | SK-MEL-2 > 100 µM | SK-MEL-5 > 100 µM | SK-OV-3 > 100 µM | SNB-19 > 100 µM | UO-31 > 100 µM

O=C(CC(=O)N1N=C(c2ccccc2)C(/N=N/c2ccc(S(=O)(=O)CCOS(=O)(=O)O)cc2)C1=O)Nc1ccc(Cl)cc1 (stereo not given)
inactive: 786-0 > 100 µM | A498 > 100 µM | BT-549 > 100 µM | CAKI-1 > 100 µM | CCRF-CEM 49.5 µM | DU-145 > 100 µM | EKVX > 100 µM | HL-60 > 100 µM | K562 7.5 µM | KM12 21.7 µM | MOLT-4 79.3 µM | Malme-3M > 100 µM | NCI-H460 > 100 µM | OVCAR-5 > 100 µM | SF-295 > 100 µM | SK-MEL-2 > 100 µM | SK-MEL-5 > 100 µM | SK-OV-3 > 100 µM | SNB-19 > 100 µM | UO-31 40.3 µM
